Peptide text beside a SMILES is read from it. * marks the point of attachment. X1 = FC(F)(F)C1(c2ccc(CS*)cc2)N=N1; X2 = CC1(CCS*)N=N1
Tests used:
MCL-1 = target: T1, MCL-1 (Homo sapiens, UniProt Q07820); test: Photo-crosslinking of labelled BID80-102 peptides to MCL-1, SDS-PAGE band intensity; details: 20 μM labelled peptide + 20 μM MCL-1, TBS pH 7.6; 365 nm UV LED, 1 min; SDS-PAGE band intensity of crosslinked vs non-crosslinked MCL-1; value ± SD of three repeats; SD
T1 construct: made in house
T1 sequence (Q07820 whole entry): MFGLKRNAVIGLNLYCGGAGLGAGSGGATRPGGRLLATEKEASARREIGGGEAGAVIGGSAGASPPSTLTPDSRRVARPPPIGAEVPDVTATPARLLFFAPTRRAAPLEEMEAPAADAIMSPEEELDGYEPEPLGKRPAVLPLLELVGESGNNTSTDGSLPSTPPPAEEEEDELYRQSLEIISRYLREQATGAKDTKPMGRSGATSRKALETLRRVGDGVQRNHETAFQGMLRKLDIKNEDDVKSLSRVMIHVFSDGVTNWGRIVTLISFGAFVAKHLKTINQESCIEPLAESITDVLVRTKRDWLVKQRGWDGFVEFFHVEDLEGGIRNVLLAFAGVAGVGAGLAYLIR
Experimental: Cross-linking experiments
For all irradiation methods, samples were prepared in the following way. For crosslinking of MCL-1/BID80-102, 20 μL of a solution containing MTS-diazirine or MTS-TFMD labelled BID80-102 peptide (20 μM) and MCL-1 (20 μM) in buffer 50 mM Tris-HCl, 150 mM NaCl (TBS) pH 7.6 was prepared. […]
This was then placed under a covered LF-206.LS 6 W 365 nm lamp (Uvitec) at a distance of 12 mm from the source for different times up to 30 min. For UV LED chip experiments, acrylic chip chambers were washed with TBS pH 7.6 buffer and 33 µL of sample was added. These were then clamped into the chip holder and irradiated with the 365 nm LED for up to 30 s. A pipette was used to remove the sample from the chip via the lower filling hole. For UV LED tube experiments, 30-130 µL of sample was added to a thin-walled PCR tube and placed inside a 0.5 mL microfuge tube which itself was in a 1.5 mL microfuge tube that had been wrapped in aluminium foil (to reflect the UV irradiation within the containers). Samples were irradiated with the 365 nm LED for 30 s. To crosslink MCL-1 BID80-102, samples were irradiated using this apparatus for 1 min.
Separation and enrichment of cross-linked products
To separate and/or enrich crosslinked samples three methods were used as described in the main text.
Table S1: Affinity (EC50) of labelled BID80-102 peptides to MCL-1 as determined by competition fluorescence anisotropy assay. Crosslinking efficiency of labelled BID80-102 peptides to MCL-1 based on the SDS-PAGE band intensity of crosslinked and non-crosslinked […]
The values and standard deviations are results of three repeats. n.d = not determined as binding was too weak to enable an accurate fit to be obtained.
BID peptide EC50 for affinity to MCL-1 (nM) Crosslinked Mcl-1 (%)

Skp = details: read-out: KD of Skp/OmpA complex; cited from earlier work

Row | Molecule | Crosslinked Mcl-1 (crosslinking efficiency) (MCL-1) [%] | Kd (Skp) [nM]
1 | CC[C@H](C)[C@H](NC(=O)[C@H](CC(N)=O)NC(=O)[C@H](CCCNC(=N)N)NC(=O)[C@@H](NC(=O)[C@@H](NC(=O)[C@H](CC(=O)O)NC(=O)[C@H](CCC(=O)O)NC(C)=O)[C@@H](C)CC)[C@@H](C)CC)C(=O)N[C@@H](C)C(=O)N[C@@H](CCCNC(=N)N)C(=O)N[C@@H](Cc1c[nH]cn1)C(=O)N[C@@H](CC(C)C)C(=O)N[C@@H](C)C(=O)N[C@@H](CCC(N)=O)C(=O)N[C@H](C(=O)NCC(=O)N[C@@H](CC(=O)O)C(=O)N[C@@H](CO)C(=O)N[C@@H](CSSCCC1(C)N=N1)C(=O)N[C@@H](CC(=O)O)C(=O)N[C@@H](CCCNC(=N)N)C(=O)N[C@@H](CO)C(=O)N[C@H](C(=O)N[C@@H](Cc1c[nH]c2ccccc12)C(N)=O)[C@@H](C)CC)C(C)C [MTS-diazirine labelled M97C] (Ac-EDIIRNIARHLAQVGDSC(X2)DRSIW-NH2) | 41 ± 6 | 
2 | CC[C@H](C)[C@H](NC(=O)[C@H](CO)NC(=O)[C@H](CCCNC(=N)N)NC(=O)[C@H](CC(=O)O)NC(=O)[C@H](CCSC)NC(=O)[C@H](CO)NC(=O)[C@H](CC(=O)O)NC(=O)CNC(=O)[C@@H](NC(=O)[C@H](CCC(N)=O)NC(=O)[C@H](C)NC(=O)[C@H](CC(C)C)NC(=O)[C@H](Cc1c[nH]cn1)NC(=O)[C@H](CCCNC(=N)N)NC(=O)[C@H](C)NC(=O)[C@H](CSSCc1ccc(C2(C(F)(F)F)N=N2)cc1)NC(=O)[C@H](CC(N)=O)NC(=O)[C@H](CCCNC(=N)N)NC(=O)[C@@H](NC(=O)[C@@H](NC(=O)[C@H](CC(=O)O)NC(=O)[C@H](CCC(=O)O)NC(C)=O)[C@@H](C)CC)[C@@H](C)CC)C(C)C)C(=O)N[C@@H](Cc1c[nH]c2ccccc12)C(N)=O [MTS-TMFD labelled I86C] (Ac-EDIIRNC(X1)ARHLAQVGDSMDRSIW-NH2) | 53 ± 1 | 
3 | OmpA: E. coli β-barrel outer membrane protein, substrate of the periplasmic chaperone Skp (protein, UniProt P0A910 22-346, looked up) Outer membrane protein A: APKDNTWYTGAKLGWSQYHDTGFINNNGPTHENQLGAGAFGGYQVNPYVGFEMGYDWLGRMPYKGSVENGAYKAQGVQLTAKLGYPITDDLDIYTRLGGMVWRADTKSNVYGKNHDTGVSPVFAGGVEYAITPEIATRLEYQWTNNIGDAHTIGTRPDNGMLSLGVSYRFGQGEAAPVVAPAPAPAPEVQTKHFTLKSDVLFNFNKATLKPEGQAALDQLYSQLSNLDPKDGSVVVLGYTDRIGSDAYNQGLSERRAQSVVDYLISKGIPADKISARGMGESNPVTGNTCDNVKQRAALIDCLAPDRRVEIEVKGIKDVVTQPQA |  | 22 ± 16

From publication PMC6348423, “Rapid Mapping of Protein Interactions Using Tag‐Transfer Photocrosslinkers” (Angewandte Chemie (International Ed. in English), 2018)
